# Tested on: Jurkat cells, No TCR
# Assay: Single SABR-II co-incubation, background without TCR
# Format: cell-based, human
# Conditions: No TCR; Ext. Data Fig. 6C; 18-20 hr; technical replicate 1
# Excerpt: (§1) We performed systematic screening of the cloned TCRs against the I-Ag7 SABR-II library. Several TCRs along with a positive control (such as BDC2.5 or 4-8Ins) were screened individually against the library for each sort (Extended Data Fig. 6a and Supplementary Table 4). High- and low-confidence ES zones for each screened TCR were defined by the ES values of the control TCR’s cognate epitopes. For all putative cognate epitopes, single SABR-IIs were constructed, expressed in NFAT–GFP Jurkat cells and used for co-incubation with the corresponding TCRs. Co-incubation assays that yielded a GFP signal higher than that obtained in assays with no TCR were determined to be positive and the epitopes deemed true cognate ligands (Extended Data Fig. 6b,c). Using this strategy, we obtained epitopes in the high-confidence zone for eight TCRs (Fig. 3a and Extended Data Fig. 6b,d). Among numerous altered peptide ligands (APLs), these TCRs recognized the physiological InsC-ChgA HIP ([…] and analogs, recognized by TCR5, TCR6B, TCR9 and TCR34), InsC-Iapp HIP ([…] and analogs, recognized by TCR4 and TCR15) and InsB9:23 ([…] and analogs recognized by TCR24 and TCR37). These cognate high-confidence hits were validated using single SABR-II co-incubation assays (Fig. 3b and Extended Data Fig. 7a). Further validations using in vitro mouse interleukin-2 (mIL-2) secretion by TCR-expressing 5KC reporter cells[13] or CD25 expression by TCR-expressing splenic CD4^+ T cells upon stimulation with the cognate epitope were performed (Extended Data Fig. 7b,c). Furthermore, low-confidence hits were called for ten TCRs and tested in co-incubation assays.
# (§2) For SABR library screens, 3 × 10^6 NFAT–GFP Jurkat cells expressing the SABR library were labeled with CellTrace Violet (BioLegend) according to the manufacturer’s protocol before incubation with 3 × 10^6 Jurkat cells expressing the TCR of interest. These mixtures were incubated in a six-well plate for 16–20 h. Cells were stained with anti-CD69-APC-Cy7 where indicated (BioLegend) and the top 1–2% of GFP^+CD69^+ cells were sorted for genomic DNA extraction, indexing and sequencing (see below). Multiplexed assays were scaled on a per-TCR basis (for example 3 × 10^6 for each of three TCRs against 9 × 10^6 library cells). For single SABR assays, unless otherwise defined, 5 × 10^5 SABR expressing NFAT–GFP Jurkat cells (or 5KC cells) were labeled with CellTrace Violet (BioLegend) according to the manufacturer’s protocol before incubation with 5 × 10^5 TCR-expressing Jurkat cells (or 5KC cells) in a round-bottom 96-well plate for 16–20 h. Cells were stained with anti-CD69-APC-Cy7 when indicated and acquired on the Attune NxT flow cytometer (Thermo Fisher Scientific). All flow analysis was performed using FlowJo (BD). For Daudi cell co-culture, 1 × 10^6 Jurkat cells expressing the TCR of interest were incubated with 1 × 10^6 Daudi cells expressing a SABR of interest for 3 days. On day 3, cells were labeled with anti-RT1B-PE and anti-Fas-APC-Cy7 before being acquired on the Attune NxT flow cytometer.
row,Sequence,%GFP+CD69+ cells of SABR-NFAT-GFP-Jurkat cells [%]
1,RRAGDLQTLWSRMDARR,0.37
2,SRLGLWSRMDQLAKELTAE,1.65
3,SRLGLWVRMEQLAKELTAE,1.58

# Same assay, conditions: No TCR; Ext. Data Fig. 6C; 18-20 hr; technical replicate 2
row,Sequence,%GFP+CD69+ cells of SABR-NFAT-GFP-Jurkat cells [%]
1,RRAGDLQTLWSRMDARR,0.41
2,SRLGLWSRMDQLAKELTAE,1.6
3,SRLGLWVRMEQLAKELTAE,1.53

# Same assay, conditions: No TCR; Fig 5C; technical replicate 1
row,Sequence,%GFP+CD69+ cells of SABR-NFAT-GFP-Jurkat cells [%]
1,"EQLELGGHIEDSGE [14-mer hybrid insulin peptide spanning the fusion junction, TCR3 hit]",14.1

# Same assay, conditions: No TCR; Fig 5C; technical replicate 2
row,Sequence,%GFP+CD69+ cells of SABR-NFAT-GFP-Jurkat cells [%]
1,"EQLELGGHIEDSGE [14-mer hybrid insulin peptide spanning the fusion junction, TCR3 hit]",13.9

# Tested on: TCR5
# Assay: Single SABR-II co-incubation, NFAT-GFP Jurkat
# Format: cell-based, mouse
# Conditions: TCR 5; Ext. Data Fig. 6C; 18-20 hr; technical replicate 1
# Excerpt: as §1, §2
row,Sequence,%GFP+CD69+ cells of SABR-NFAT-GFP-Jurkat cells [%]
1,RRAGDLQTLWSRMDARR,22.4
2,SRLGLWSRMDQLAKELTAE,73.5
3,SRLGLWVRMEQLAKELTAE,21.9

# Same assay, conditions: TCR 5; Ext. Data Fig. 6C; 18-20 hr; technical replicate 2
row,Sequence,%GFP+CD69+ cells of SABR-NFAT-GFP-Jurkat cells [%]
1,RRAGDLQTLWSRMDARR,18.8
2,SRLGLWSRMDQLAKELTAE,71.6
3,SRLGLWVRMEQLAKELTAE,19.4

# Tested on: TCR4
# Assay: Single SABR-II co-incubation, NFAT-GFP Jurkat
# Format: cell-based, mouse
# Conditions: TCR 4; Fig 5C; technical replicate 1
# Excerpt: as §1, §2
row,Sequence,%GFP+CD69+ cells of SABR-NFAT-GFP-Jurkat cells [%]
1,"EQLELGGHIEDSGE [14-mer hybrid insulin peptide spanning the fusion junction, TCR3 hit]",13.2

# Same assay, conditions: TCR 4; Fig 5C; technical replicate 2
row,Sequence,%GFP+CD69+ cells of SABR-NFAT-GFP-Jurkat cells [%]
1,"EQLELGGHIEDSGE [14-mer hybrid insulin peptide spanning the fusion junction, TCR3 hit]",14.3

# Tested on: TCR3
# Assay: Single SABR-II co-incubation, NFAT-GFP Jurkat
# Format: cell-based, mouse
# Conditions: TCR 3; Fig 5C; technical replicate 1
# Excerpt: Given the predominance of HIP-reactive TCRs, we hypothesized that there may be other TCRs that respond to HIPs that were not encoded in our initial library configuration. While the initial I-Ag7 SABR-II library consisted of a number of HIPs, HIP formation is thought to be more widespread in pancreatic β-cells[52],[70]. Therefore, we sought to construct a defined, HIP-focused library to probe whether there were any undiscovered HIP-reactive TCRs that could be recognized by the clonally expanded TCR in our dataset. To test this, we utilized a published proteomic dataset, which predicted that several proteins that were highly expressed in secretory granules of β-cells may contribute to HIP formation. Using their predictions, we built a theoretical HIP library, in which all possible ‘left’ halves of the insulin C chain derived from natural cleavage products were fused to ‘right’ halves derived from secretory granule proteins (Fig. 5a). This 2,561-epitope library (12–25 amino acids per epitope) consisted of only HIPs and a small number of positive control epitopes (Supplementary Table 5). We screened the top three clonally expanded TCRs (TCR1, TCR2 and TCR3) against this library, as these TCRs had not been de-convoluted using the original library. […] To confirm that the HIP itself was important for the cognate interaction, we cloned single 14-mer epitopes into SABR-IIs consisting of seven amino acids of the left portion of the HIP and seven amino acids of the right portion of the HIP. In this way, no nine amino acids from either peptide sequence alone could occupy the binding pocket of I-Ag7, ensuring that TCR reactivity spanned the HIP junction. […] Of note, in all the epitopes that were tested, the ‘left’ half derived from insulin C was conserved, whereas the ‘right’ halves were derived from several other proteins (Fig. 5d). […] Moreover, the promiscuous binding of TCR3 to HIPs corroborates evidence from other NOD mouse-derived TCRs reacting to multiple HIPs[72].
# as §2
row,Sequence,%GFP+CD69+ cells of SABR-NFAT-GFP-Jurkat cells [%]
1,"EQLELGGHIEDSGE [14-mer hybrid insulin peptide spanning the fusion junction, TCR3 hit]",29.1

# Same assay, conditions: TCR 3; Fig 5C; technical replicate 2
row,Sequence,%GFP+CD69+ cells of SABR-NFAT-GFP-Jurkat cells [%]
1,"EQLELGGHIEDSGE [14-mer hybrid insulin peptide spanning the fusion junction, TCR3 hit]",28.9

# Tested on: BDC2.5 TCR
# Assay: I-Ag7 SABR-II library screen, enrichment score
# Format: cell-based, mouse
# Conditions: I-Ag7 library; EXPT1 of 8 biological experiments
# Excerpt: We then asked whether SABR-IIs could be used to present a library of epitopes for CD4^+ T cell antigen discovery. To that end, we constructed a SABR-II library to present epitopes derived from pancreatic islets in I-Ag7 by curating a list of 4,075 published epitopes from the Immune Epitope Database (iedb.org)[50] and a study by Wan et al.[51] (Supplementary Table 1). Of note, this defined library consisted of unmodified epitopes from endogenous proteins, synthetic mimotopes, deamidated epitopes and hybrid insulin peptides (HIPs) that arise from post-translational fusion and are not genetically encoded in vivo[52],[53]. The epitope library was inserted into the I-Ag7 SABR-II backbone through pooled oligonucleotide synthesis, amplification and ligation-free cloning (Extended Data Fig. 3a). The I-Ag7 SABR-II-library was then expressed in NFAT–GFP Jurkat cells. We confirmed that after sequencing, the library accounted for a mean of 708 reads per epitope (Extended Data Fig. 3b). As a proof of concept, we performed co-incubation assays with Jurkat cells expressing the BDC2.5 TCR and sorted the top 1–2% of GFP^+CD69^+ cells at a rate of ~20 min per replicate with three replicates per TCR. We extracted the genomic DNA from sorted cells, amplified the SABR portion of the integrated proviruses and subjected the amplicons to Illumina sequencing (Extended Data Fig. 3c,d). The 1–2% sort gate represents >50-fold enrichment of cognate epitopes with minimal loss of signal (Extended Data Fig. 3e–h). Sequence reads were aligned to the I-Ag7 SABR-II backbone and the corresponding epitopes were scored based on their read counts. For each TCR under investigation, an enrichment score (ES) was determined for all the epitopes in a library. In each experiment, three replicates of a sort with TCR-expressing Jurkat cells were performed and reads were counted post-sequencing. In addition, three replicates of the unsorted library were also sequenced. A linear regression model was built using the unsorted library counts and used to determine the expected abundance of each epitope in the library. The ES was calculated based on the difference between the measured and the expected abundance of each epitope on a per-TCR basis (Fig. 1e). Based on ES values, two quantitative thresholds were used to determine putative cognate epitopes of a given TCR. A high-confidence zone containing clear outliers with a high ES and a low-confidence zone containing weak outliers with a moderately high ES were determined (Fig. 1e). This two-tiered strategy was used to call putative hits from screens. All the top-scoring epitopes for the BDC2.5 TCR were known BDC2.5 ligands containing the WXRM(D/E) motif (Fig. 1f,g, enriched ligands in red), a well-characterized trait of the BDC2.5 TCR[43],[54]–[56]. Across several independent experiments there was limited variation in ES values for the same TCRs and several epitopes fell into high- or low-confidence zones consistently (Extended Data Fig. 4a). Using a different TCR that was isolated from NOD mice, 4-8Ins[57], which recognized the InsB9:23 epitope ([…]), we observed a similar pattern of ES for cognate epitopes (Extended Data Fig. 4b).
# For SABR library screens, 3 × 10^6 NFAT–GFP Jurkat cells expressing the SABR library were labeled with CellTrace Violet (BioLegend) according to the manufacturer’s protocol before incubation with 3 × 10^6 Jurkat cells expressing the TCR of interest. These mixtures were incubated in a six-well plate for 16–20 h. Cells were stained with anti-CD69-APC-Cy7 where indicated (BioLegend) and the top 1–2% of GFP^+CD69^+ cells were sorted for genomic DNA extraction, indexing and sequencing (see below). Multiplexed assays were scaled on a per-TCR basis (for example 3 × 10^6 for each of three TCRs against 9 × 10^6 library cells). […]
row,Sequence,Enrichment score
1,RRAGDLQTLWSRMDARR,0.002517
2,SRLGLWSRMDQLAKELTAE,0.002042
3,SRLGLWVRMEQLAKELTAE,0.001795

# Same assay, conditions: I-Ag7 library; EXPT2 of 8
row,Sequence,Enrichment score
1,RRAGDLQTLWSRMDARR,0.001322
2,SRLGLWSRMDQLAKELTAE,0.001129
3,SRLGLWVRMEQLAKELTAE,0.001184

# Same assay, conditions: I-Ag7 library; EXPT3 of 8
row,Sequence,Enrichment score
1,RRAGDLQTLWSRMDARR,0.002797
2,SRLGLWSRMDQLAKELTAE,0.002688
3,SRLGLWVRMEQLAKELTAE,0.002703

# Same assay, conditions: I-Ag7 library; EXPT4 of 8
row,Sequence,Enrichment score
1,RRAGDLQTLWSRMDARR,0.002419
2,SRLGLWSRMDQLAKELTAE,0.002123
3,SRLGLWVRMEQLAKELTAE,0.001978

# Same assay, conditions: I-Ag7 library; EXPT5 of 8
row,Sequence,Enrichment score
1,RRAGDLQTLWSRMDARR,0.002428
2,SRLGLWSRMDQLAKELTAE,0.003298
3,SRLGLWVRMEQLAKELTAE,0.002454

# Same assay, conditions: I-Ag7 library; EXPT6 of 8
row,Sequence,Enrichment score
1,RRAGDLQTLWSRMDARR,0.002187
2,SRLGLWSRMDQLAKELTAE,0.002741
3,SRLGLWVRMEQLAKELTAE,0.002768

# Same assay, conditions: I-Ag7 library; EXPT7 of 8
row,Sequence,Enrichment score
1,RRAGDLQTLWSRMDARR,0.002605
2,SRLGLWSRMDQLAKELTAE,0.00232
3,SRLGLWVRMEQLAKELTAE,0.002526

# Same assay, conditions: I-Ag7 library; EXPT8 of 8
row,Sequence,Enrichment score
1,RRAGDLQTLWSRMDARR,0.002542
2,SRLGLWSRMDQLAKELTAE,0.003121
3,SRLGLWVRMEQLAKELTAE,0.002128

# — publication PMC11093748, “De novo identification of CD4^+ T cell epitopes” (Nature Methods, 2024)
